Laboratory results as given in the NIST ThermoML archive (doi:10.1021/acs.jced.8b01095).

Test: xn = mol fraction of the nth substance listed
Conditions: Liquid; for viscosity: 2 kPa, Falling or rolling sphere viscometry; for speed of sound / mass density: 100 kPa; for speed of sound: Single path-length method; for mass density: Vibrating tube method

CNc1ccccc1 [N-methylaniline] + CCCCn1cc[n+](C)c1.F[P-](F)(F)(F)(F)F
Conditions | mass density [kg/m3] | speed of sound [m/s] | viscosity [mPa·s]
298.15 K, x2 = 0 | 982.7 | 1564.5 | 1.94
298.15 K, x2 = 0.1076 | 1064.1 | 1558.7 | 5.42
298.15 K, x2 = 0.2146 | 1128.52 | 1549.8 | 11.47
298.15 K, x2 = 0.3053 | 1174.31 | 1538.2 | 22.49
298.15 K, x2 = 0.3985 | 1214.23 | 1516.1 | 37.19
298.15 K, x2 = 0.4805 | 1243.22 | 1497.1 | 53.52
298.15 K, x2 = 0.5766 | 1272.38 | 1481.9 | 71.45
298.15 K, x2 = 0.6793 | 1299.48 | 1468.8 | 95.21
298.15 K, x2 = 0.7871 | 1325.04 | 1457.9 | 126.78
298.15 K, x2 = 0.9009 | 1348.44 | 1447.2 | 187.23
303.15 K, x2 = 0 | 978.59 | 1546.1 | 1.73
303.15 K, x2 = 0.1076 | 1060.11 | 1542.2 | 4.31
303.15 K, x2 = 0.2146 | 1124.54 | 1534.3 | 9.24
303.15 K, x2 = 0.3053 | 1170.33 | 1523.4 | 16.65
303.15 K, x2 = 0.3985 | 1210.27 | 1502.3 | 27.2
303.15 K, x2 = 0.4805 | 1239.24 | 1484.1 | 39.53
303.15 K, x2 = 0.5766 | 1268.37 | 1469.4 | 53.54
303.15 K, x2 = 0.6793 | 1295.43 | 1456.7 | 74.21
303.15 K, x2 = 0.7871 | 1320.94 | 1445.9 | 96.09
303.15 K, x2 = 0.9009 | 1344.33 | 1435.4 | 140.54
308.15 K, x2 = 0 | 974.47 | 1528.3 | 1.55
308.15 K, x2 = 0.1076 | 1056.11 | 1525.9 | 3.52
308.15 K, x2 = 0.2146 | 1120.57 | 1518.9 | 7.54
308.15 K, x2 = 0.3053 | 1166.34 | 1508.8 | 12.57
308.15 K, x2 = 0.3985 | 1206.32 | 1488.9 | 20.33
308.15 K, x2 = 0.4805 | 1235.26 | 1471.1 | 29.79
308.15 K, x2 = 0.5766 | 1264.35 | 1456.7 | 40.88
308.15 K, x2 = 0.6793 | 1291.38 | 1444.4 | 53.97
308.15 K, x2 = 0.7871 | 1316.84 | 1433.9 | 72.45
308.15 K, x2 = 0.9009 | 1340.21 | 1423.5 | 107.54
313.15 K, x2 = 0 | 970.36 | 1511.5 | 1.4
313.15 K, x2 = 0.1076 | 1052.12 | 1506.7 | 2.95
313.15 K, x2 = 0.2146 | 1116.59 | 1500.8 | 6.01
313.15 K, x2 = 0.3053 | 1162.35 | 1492.6 | 9.66
313.15 K, x2 = 0.3985 | 1202.36 | 1475.5 | 15.49
313.15 K, x2 = 0.4805 | 1231.27 | 1458 | 22.87
313.15 K, x2 = 0.5766 | 1260.34 | 1444.2 | 31.76
313.15 K, x2 = 0.6793 | 1287.33 | 1432.3 | 42.71
313.15 K, x2 = 0.7871 | 1312.75 | 1422.2 | 57.32
313.15 K, x2 = 0.9009 | 1336.1 | 1411.9 | 83.73
318.15 K, x2 = 0 | 966.24 | 1492.8 | 1.27
318.15 K, x2 = 0.1076 | 1048.13 | 1491.1 | 2.5
318.15 K, x2 = 0.2146 | 1112.61 | 1488.2 | 5
318.15 K, x2 = 0.3053 | 1158.36 | 1479.8 | 7.84
318.15 K, x2 = 0.3985 | 1198.4 | 1462.1 | 12.02
318.15 K, x2 = 0.4805 | 1227.29 | 1445.1 | 17.73
318.15 K, x2 = 0.5766 | 1256.33 | 1431.8 | 25.05
318.15 K, x2 = 0.6793 | 1283.28 | 1420.3 | 34.26
318.15 K, x2 = 0.7871 | 1308.65 | 1410.4 | 46.02
318.15 K, x2 = 0.9009 | 1331.99 | 1400.5 | 66.23
323.15 K, x2 = 0 | 962.13 | 1476.2 | 1.16
323.15 K, x2 = 0.1076 | 1044.13 | 1473.9 | 2.07
323.15 K, x2 = 0.2146 | 1108.64 | 1471.7 | 4.02
323.15 K, x2 = 0.3053 | 1154.38 | 1466.1 | 6.32
323.15 K, x2 = 0.3985 | 1194.44 | 1448.8 | 9.48
323.15 K, x2 = 0.4805 | 1223.3 | 1432.3 | 13.62
323.15 K, x2 = 0.5766 | 1252.31 | 1419.6 | 19.75
323.15 K, x2 = 0.6793 | 1279.23 | 1408.4 | 27.82
323.15 K, x2 = 0.7871 | 1304.56 | 1398.9 | 37.45
323.15 K, x2 = 0.9009 | 1327.88 | 1389.2 | 53.14

CNc1ccccc1 [N-methylaniline] + CCCC[n+]1ccn(C)c1.O=S(=O)([N-]S(=O)(=O)C(F)(F)F)C(F)(F)F
Conditions | mass density [kg/m3] | speed of sound [m/s] | viscosity [mPa·s]
298.15 K, x2 = 0 | 982.7 | 1564.5 | 1.94
298.15 K, x2 = 0.0958 | 1085.92 | 1478.4 | 3.78
298.15 K, x2 = 0.2004 | 1171.17 | 1416.5 | 7.41
298.15 K, x2 = 0.3061 | 1237.44 | 1372.1 | 10.89
298.15 K, x2 = 0.4074 | 1287.31 | 1337.5 | 15.38
298.15 K, x2 = 0.4939 | 1321.9 | 1312.1 | 19.38
298.15 K, x2 = 0.5905 | 1352.65 | 1286.8 | 23.54
298.15 K, x2 = 0.6834 | 1377.01 | 1267.9 | 28.71
298.15 K, x2 = 0.7988 | 1402.4 | 1250.4 | 35.25
298.15 K, x2 = 0.8751 | 1415.81 | 1241 | 40.87
303.15 K, x2 = 0 | 978.59 | 1546.1 | 1.73
303.15 K, x2 = 0.0958 | 1081.63 | 1462.9 | 3.32
303.15 K, x2 = 0.2004 | 1166.89 | 1402.2 | 6.34
303.15 K, x2 = 0.3061 | 1233.05 | 1358.7 | 9.2
303.15 K, x2 = 0.4074 | 1282.85 | 1324.7 | 12.87
303.15 K, x2 = 0.4939 | 1317.38 | 1299.7 | 16.31
303.15 K, x2 = 0.5905 | 1348.07 | 1275.1 | 19.68
303.15 K, x2 = 0.6834 | 1372.38 | 1256.5 | 23.79
303.15 K, x2 = 0.7988 | 1397.7 | 1239.1 | 29.03
303.15 K, x2 = 0.8751 | 1411.09 | 1229.8 | 33.45
308.15 K, x2 = 0 | 974.47 | 1528.3 | 1.55
308.15 K, x2 = 0.0958 | 1077.34 | 1447.9 | 2.93
308.15 K, x2 = 0.2004 | 1162.61 | 1388 | 5.47
308.15 K, x2 = 0.3061 | 1228.67 | 1345.4 | 7.87
308.15 K, x2 = 0.4074 | 1278.4 | 1312.1 | 10.91
308.15 K, x2 = 0.4939 | 1312.87 | 1287.6 | 13.85
308.15 K, x2 = 0.5905 | 1343.49 | 1263.3 | 16.65
308.15 K, x2 = 0.6834 | 1367.74 | 1245 | 20
308.15 K, x2 = 0.7988 | 1393.02 | 1228.1 | 24.27
308.15 K, x2 = 0.8751 | 1406.37 | 1218.9 | 27.84
313.15 K, x2 = 0 | 970.36 | 1511.5 | 1.4
313.15 K, x2 = 0.0958 | 1073.05 | 1433.7 | 2.61
313.15 K, x2 = 0.2004 | 1158.33 | 1373.8 | 4.76
313.15 K, x2 = 0.3061 | 1224.28 | 1332.5 | 6.8
313.15 K, x2 = 0.4074 | 1273.93 | 1299.9 | 9.36
313.15 K, x2 = 0.4939 | 1308.35 | 1275.7 | 11.86
313.15 K, x2 = 0.5905 | 1338.91 | 1251.8 | 14.24
313.15 K, x2 = 0.6834 | 1363.11 | 1233.8 | 17.04
313.15 K, x2 = 0.7988 | 1388.31 | 1217.1 | 20.57
313.15 K, x2 = 0.8751 | 1401.64 | 1208.1 | 23.51
318.15 K, x2 = 0 | 966.24 | 1492.8 | 1.27
318.15 K, x2 = 0.0958 | 1068.75 | 1417.6 | 2.34
318.15 K, x2 = 0.2004 | 1154.04 | 1359.9 | 4.17
318.15 K, x2 = 0.3061 | 1219.9 | 1319.4 | 5.94
318.15 K, x2 = 0.4074 | 1269.47 | 1287.4 | 8.12
318.15 K, x2 = 0.4939 | 1303.83 | 1263.6 | 10.24
318.15 K, x2 = 0.5905 | 1334.33 | 1240 | 12.3
318.15 K, x2 = 0.6834 | 1358.47 | 1222.4 | 14.69
318.15 K, x2 = 0.7988 | 1383.61 | 1206.1 | 17.64
318.15 K, x2 = 0.8751 | 1396.92 | 1197.1 | 20.12
323.15 K, x2 = 0 | 962.13 | 1476.2 | 1.16
323.15 K, x2 = 0.0958 | 1064.46 | 1403.2 | 2.11
323.15 K, x2 = 0.2004 | 1149.76 | 1346.5 | 3.68
323.15 K, x2 = 0.3061 | 1215.52 | 1306.7 | 5.23
323.15 K, x2 = 0.4074 | 1265 | 1275.5 | 7.1
323.15 K, x2 = 0.4939 | 1299.32 | 1252 | 8.9
323.15 K, x2 = 0.5905 | 1329.74 | 1228.6 | 10.72
323.15 K, x2 = 0.6834 | 1353.84 | 1211.5 | 12.79
323.15 K, x2 = 0.7988 | 1378.91 | 1195.2 | 15.29
323.15 K, x2 = 0.8751 | 1392.22 | 1186.4 | 17.41
